In BindingDB's records for doi:10.1016/j.chembiol.2017.02.003 (University of Colorado, 2017):

Key:
Assay in all cases: Caspase Catalytic Activity Assay
Details in all cases: pH 7.4
Caspase-1 = biological target: T1, Caspase-1 (Homo sapiens, UniProt P29466)
T1 sequence (P29466 whole entry): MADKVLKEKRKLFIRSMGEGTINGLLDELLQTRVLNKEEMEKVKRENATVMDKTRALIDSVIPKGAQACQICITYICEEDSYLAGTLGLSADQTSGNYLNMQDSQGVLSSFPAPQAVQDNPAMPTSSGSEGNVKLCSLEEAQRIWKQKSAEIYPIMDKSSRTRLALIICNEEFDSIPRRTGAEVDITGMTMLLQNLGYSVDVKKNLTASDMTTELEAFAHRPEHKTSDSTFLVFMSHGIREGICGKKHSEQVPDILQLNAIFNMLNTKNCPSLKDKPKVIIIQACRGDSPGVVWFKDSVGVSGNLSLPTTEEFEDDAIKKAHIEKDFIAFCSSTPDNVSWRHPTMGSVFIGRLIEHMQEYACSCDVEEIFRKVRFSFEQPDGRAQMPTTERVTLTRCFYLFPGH
Protocol: (§1) ECB (Enzo Caspase Buffer): 50 mM HEPES (pH 7.4), 100 mM NaCl, 0.5% Tween 20, 10 mM DTT, and 10% glycerol; SCB (Standard Caspase Buffer): 20 mM PIPES (pH 7.5), 100 mM NaCl, 1 mM EDTA, 10 mM DTT, and 10% sucrose; HCB (High-Citrate Buffer): 50 mM Tris-HCl (pH 7.5), 1 M sodium citrate, 10 mM DTT, and 10% sucrose. Activity was measured as the change in luminescent signal for at least 30 min.

Caspase-3 = biological target: T2, Caspase-3 (Homo sapiens, UniProt P42574)
T2 sequence (P42574 whole entry): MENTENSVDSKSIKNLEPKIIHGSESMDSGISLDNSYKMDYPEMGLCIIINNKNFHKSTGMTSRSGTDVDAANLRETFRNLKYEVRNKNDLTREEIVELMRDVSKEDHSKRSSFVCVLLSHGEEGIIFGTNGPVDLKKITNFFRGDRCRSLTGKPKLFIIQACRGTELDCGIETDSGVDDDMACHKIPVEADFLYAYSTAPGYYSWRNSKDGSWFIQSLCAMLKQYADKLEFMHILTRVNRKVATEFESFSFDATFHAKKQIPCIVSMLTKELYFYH
Protocol: as §1

Caspase-4 = biological target: T3, Caspase-4 (Homo sapiens, UniProt P49662)
T3 sequence (P49662 whole entry): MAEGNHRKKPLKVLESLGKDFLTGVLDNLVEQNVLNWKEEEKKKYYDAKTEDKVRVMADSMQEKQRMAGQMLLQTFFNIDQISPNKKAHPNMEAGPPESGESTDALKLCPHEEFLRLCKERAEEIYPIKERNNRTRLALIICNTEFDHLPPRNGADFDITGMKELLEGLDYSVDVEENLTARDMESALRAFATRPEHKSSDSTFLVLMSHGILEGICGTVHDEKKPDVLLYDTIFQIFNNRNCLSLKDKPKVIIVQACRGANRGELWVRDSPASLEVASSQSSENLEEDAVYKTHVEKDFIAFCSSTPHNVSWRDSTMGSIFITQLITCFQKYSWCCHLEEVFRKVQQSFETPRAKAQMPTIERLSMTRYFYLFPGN
Protocol: as §1

Caspase-5 = biological target: T4, Caspase-5 (Homo sapiens, UniProt P51878)
T4 sequence (P51878 whole entry): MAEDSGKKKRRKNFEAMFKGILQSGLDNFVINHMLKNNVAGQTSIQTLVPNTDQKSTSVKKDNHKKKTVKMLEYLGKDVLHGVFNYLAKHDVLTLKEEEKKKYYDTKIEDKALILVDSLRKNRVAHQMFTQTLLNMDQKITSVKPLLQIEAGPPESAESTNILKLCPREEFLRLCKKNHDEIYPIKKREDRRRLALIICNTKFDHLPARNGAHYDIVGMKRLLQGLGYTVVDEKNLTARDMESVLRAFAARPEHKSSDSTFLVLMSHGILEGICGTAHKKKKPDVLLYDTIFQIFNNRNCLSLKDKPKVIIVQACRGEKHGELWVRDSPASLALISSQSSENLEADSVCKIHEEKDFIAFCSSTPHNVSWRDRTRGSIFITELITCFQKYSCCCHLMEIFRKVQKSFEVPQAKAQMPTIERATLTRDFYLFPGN
Protocol: as §1

Caspase-9 = biological target: T5, Caspase-9 (Homo sapiens, UniProt P55211)
T5 sequence (P55211 whole entry): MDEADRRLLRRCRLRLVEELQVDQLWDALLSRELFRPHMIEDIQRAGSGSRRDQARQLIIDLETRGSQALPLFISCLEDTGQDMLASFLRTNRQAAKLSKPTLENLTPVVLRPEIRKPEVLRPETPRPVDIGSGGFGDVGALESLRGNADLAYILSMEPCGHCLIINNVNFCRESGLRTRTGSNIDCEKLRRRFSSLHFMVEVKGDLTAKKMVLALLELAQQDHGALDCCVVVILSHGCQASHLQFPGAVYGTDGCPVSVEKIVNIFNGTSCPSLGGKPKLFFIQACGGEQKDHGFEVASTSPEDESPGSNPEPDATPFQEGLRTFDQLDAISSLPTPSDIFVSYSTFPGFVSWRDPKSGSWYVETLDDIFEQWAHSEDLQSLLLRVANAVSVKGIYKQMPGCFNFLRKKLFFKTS
Protocol: as §1

Row | SMILES | IC50 (Caspase-1) | IC50 (Caspase-3) | IC50 (Caspase-4) | IC50 (Caspase-5) | IC50 (Caspase-9)
1 | CC(C(=O)O)c1cccc(C(=O)c2ccccc2)c1 (stereo not given) [2-(3-benzoylphenyl)propanoic acid] | > 66000 nM | 50000 nM | 10000 nM | 10000 nM | 10000 nM
2 | CC(C(=O)O)c1ccc(N2Cc3ccccc3C2=O)cc1 (stereo not drawn) [(+)-2-(4-(1-oxoisoindolin-2-yl)phenyl)propanoic acid] | 3600 nM | 1400 nM | 570 nM | 590 nM | 300 nM
3 | COc1ccc2cc([C@H](C)C(=O)O)ccc2c1 [(2S)-2-(6-methoxynaphthalen-2-yl)propanoic acid] | > 66000 nM | 55000 nM | 15000 nM | 11000 nM | 10000 nM
4 | CC(C(=O)O)c1ccc(C(=O)c2ccccc2)s1 (stereo not given) [Tiaprofenic acid] | 1600 nM | 810 nM | 380 nM | 470 nM | 2200 nM
5 | O=C(c1ccccc1)c1ccc2n1CCC2C(=O)O (stereo not given) [Toradol] | 18000 nM | 2500 nM | 860 nM | 1000 nM | 850 nM
6 | O=C(O)Cc1ccc(-c2ccccc2)cc1 [Felbinac] | 35000 nM | 14000 nM | 2000 nM | 2600 nM | 1800 nM
7 | O=C(O)CCC(=O)c1ccc(-c2ccccc2)cc1 [3-(4-biphenylylcarbonyl)propionic acid] | 4400 nM | 1200 nM | 570 nM | 870 nM | 760 nM
